From patent publication US5429774A, “Benzopyran compounds” (Transitions Optical, Inc., priority 1994, dated 1995)

Assay: photochromic response on an optical bench in ethyl cellulose resin (lambda max, sensitivity, saturation optical density, bleach rate)
Format: physicochemical
Details: for Δ OD @ SAT (saturation optical density): UV exposure 15 minutes; for Δ OD @ SAT (saturation optical density) / Sensitivity Δ OD/MIN / Bleach rate T 1/2: ethyl cellulose resin; for Lambda max Band A / Lambda max Band B: activated (colored) form, in ethyl cellulose resin; for Sensitivity Δ OD/MIN: first five (5) seconds of UV exposure, expressed on a per minute basis, 75° F. (23.9° C.); for Bleach rate T 1/2: time to one half the highest absorbance at room temperature (72° F., 22.2° C.) after removal of activating light; for sensitivity versus Comparative Examples (in words): comparison of Table 1 results
Experimental: The photochromic compounds prepared in the Examples and the Comparative Examples were incorporated into an ethyl cellulose resin by the following procedure. About 30 milligrams of the photochromic compound was added to 2.0 grams of a 10 weight percent ethyl cellulose solution in toluene. The photochromic compound was dissolved by warming and stirring on a steam bath. Approximately 2.0 grams of the resultant solution was deposited on the edge of a 75 by 25 millimeter (mm) glass slide. Using a draw down bar, a 0.2 mm layer of photochromic resin solution was placed evenly on the slide and permitted to dry.
The photochromic test samples prepared in Part A were tested for photochromic response rates on an optical bench. Prior to testing on the optical bench, the photochromic test samples were exposed to 365 nanometer (nm) ultraviolet light for about 15 minutes to activate the photochromic compounds and then placed into a 76° C. oven for about 15 minutes to bleach or inactivate the photochromic compounds. The test samples were then cooled to room temperature, exposed to fluorescent room lighting for at least 2 hours and then kept covered for at least 2 hours prior to testing on an optical bench maintained at 75° F. (23.9° C.).
The optical bench comprises a 150 watt Xenon arc lamp, a tungsten lamp, power supplies for both lamps, condensing lenses as needed to maintain collimated light beams from both lamps, a remote controlled shutter, a copper sulfate bath acting as a heat sink for the arc lamp, a Schott WG-320 nm cut-off filter which removes short wavelength radiation, neutral density filter(s), a sample holder in which the sample to be tested is inserted, a photopic filter, light detector, and radiometer assembly, a strip chart recorder, and a means for maintaining the alignment of the aforestated components during testing.
Change in optical density (ΔOD) of a sample was determined by inserting a photochromic test sample in the bleached state into the sample holder, adjusting the transmittance scale to 100%, opening the shutter from the Xenon lamp to provide ultraviolet radiation to change the sample from the bleached state to an activated (darkened) state, measuring the transmittance through the sample. The transmittance was measured by directing a beam of light from the tungsten lamp at a small angle normal to the surface of the sample, through the sample, and to a photopic filter, light detector and radiometer assembly. The photopic filter passes wavelengths such that the detector mimics the response of the human eye and produces output signals that are processed by the radiometer. The change in optical density was calculated according to the formula Δ OD=log(100/% Ta) where % Ta is the percent transmittance in the activated state and the logarithm is to the base 10.
The Δ OD/Min, which represents the sensitivity of the photochromic compound's response to UV light, was measured over the first five (5) seconds of UV exposure, then expressed on a per minute basis. The saturation optical density (OD) was taken under identical conditions as the Δ OD/Min, except UV exposure was continued for 15 minutes. The lambda max value, which is the maximum absorption of the activated (colored) form of the photochromic compound in ethyl cellulose resin, may occur at one or two wavelengths reported as Band A and Band B in Table 1. The Bleach Rate T 1/2 is the time interval in seconds for the absorbance of the activated form of the benzopyran in the test sample to reach one half the highest absorbance at room temperature (72° F., 22.2° C.) after removal of the source of activating light.

Molecule | Δ OD @ SAT (saturation optical density) | Lambda max Band A | Sensitivity Δ OD/MIN [OD/MIN] | Bleach rate T 1/2 [min] | Lambda max Band B | sensitivity versus Comparative Examples (in words)
3-(2-fluorophenyl)-3-(benzofur-2-yl)-3H-benzo(b)thieno[3,2-f]-1-benzopyran [Example 7] | 0.27 | 482 | 0.27 | 10.3 | – | –
C1=CC(c2ccccc2)(c2ccccc2)Oc2ccc3oc4ccccc4c3c21 [Comparative Example 2, 3,3-diphenyl-(3H)-benzo(b)furo[3,2-f]-1-benzopyran, reference compound] | 0.18 | 430 | 0.42 | 1.42 | 522 | –
C1=CC(c2ccccc2)(c2ccccc2)Oc2ccc3ccccc3c21 [Comparative Example 1, 3,3-diphenyl-3H-naphtho [2,1-b]pyran, reference compound] | 0.31 | 432 | 0.87 | 0.533 | – | –
C1=CC(c2ccccc2)(c2csc3ccccc23)Oc2ccc3ccccc3c21 (stereo not drawn) [Example 5, 3-phenyl-3-(benzothiophen-3-yl)-3H-naphtho[2,1-b]pyran] | 0.34 | 440 | 0.62 | 1.55 | – | greater than Comparative Example 2
COc1ccccc1C1(c2cc3ccccc3o2)C=Cc2c(ccc3sc4ccccc4c23)O1 (stereo not drawn) [Example 10, 3-(2-methoxyphenyl)-3-(benzofur-2-yl)-3H-benzo(b)thieno[3,2-f]-1-benzopyran] | 0.98 | 482 | 0.66 | > 20 | 532 | greater than Comparative Example 2
C1=CC(c2ccccc2)(c2cc3ccccc3o2)Oc2ccc3oc4ccccc4c3c21 (stereo not drawn) [Example 4, 3-phenyl-3-(benzofur-2-yl)-3H-benzo(b)furo[3,2-f]-1-benzopyran] | 0.34 | 453 | 0.26 | 5.18 | 482 | –
C1=CC(c2ccccc2)(c2cc3ccccc3s2)Oc2ccc3ccccc3c21 (stereo not drawn) [Example 3, 3-phenyl-3-(benzothiophen-2-yl)-3H-naphtho[2,1-b]pyran] | 0.52 | 460 | 0.76 | 2.03 | – | greater than Comparative Example 2
C1=CC(c2ccccc2)(c2cc3ccccc3s2)Oc2ccc3oc4ccccc4c3c21 (stereo not drawn) [Example 8, 3-phenyl-3-(benzothiophen-2-yl)-3H-benzo(b)furo[3,2-f]-1-benzopyran] | 0.23 | 476 | 0.25 | 3.77 | 545 | –
COc1ccccc1C1(c2cc3ccccc3o2)C=Cc2cc3oc4ccccc4c3cc2O1 (stereo not drawn) [Example 6, 2-(2-methoxyphenyl)-2-(benzofur-2-yl)-2H-benzo(b)furo[2,3-g]-benzopyran] | 0.86 | 448 | 0.49 | > 20 | 507 | greater than Comparative Example 2
Fc1ccccc1C1(c2cc3ccccc3o2)C=Cc2c(ccc3ccccc23)O1 (stereo not drawn) [Example 2, 3-(2-fluorophenyl)-3-(benzofur-2-yl)-3H-naphtho[2,1-b]pyran] | 0.84 | 462 | 0.59 | > 30 | – | greater than Comparative Example 2
C1=CC(c2ccccc2)(c2cc3ccccc3o2)Oc2ccc3ccccc3c21 (stereo not drawn) [Example 1, 3-phenyl-3-(benzofur-2-yl)-3H-naphtho[2,1-b]pyran] | 0.95 | 467 | 1.15 | 5.75 | – | greater than Comparative Examples 1 and 2
C1=CC(c2ccccc2)(c2csc3ccccc23)Oc2ccc3oc4ccccc4c3c21 (stereo not drawn) [Example 9, 3-phenyl-3-(benzothiophen-3-yl)-3H-benzo(b)furo[3,2-f]-1-benzopyran] | 0.18 | 444 | 0.22 | 2.97 | 515 | –
